Results as given in PubChem BioAssay (NCI).
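Five compound concentrations were applied to cells in 96-well plates for 48 hours; endpoints were derived by simple linear interpolation of the resulting dose-response curve. Definition used: TGI = concentration required for complete inhibition of growth.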

Tests used:
Experiment in all cases: NCI anticancer screen, dose series, 48 h
[1] = test system: SK-MEL-2 melanoma
[2] = test system: DU-145 prostate
[3] = test system: ACHN renal
[4] = test system: A498 renal
[5] = test system: IGROV1 ovarian
[6] = test system: HCC-2998 colon
[7] = test system: EKVX NSCLC
[8] = test system: RPMI-8226 leukemia
[9] = test system: U251 CNS
[10] = test system: PC-3 prostate
[11] = test system: SNB-19 CNS
[12] = test system: MCF7 breast
[13] = test system: 786-0 renal
[14] = test system: SK-OV-3 ovarian
[15] = test system: BT-549 breast
[16] = test system: CAKI-1 renal
[17] = test system: OVCAR-8 ovarian
[18] = test system: COLO 205 colon
[19] = test system: SF-295 CNS
[20] = test system: NCI/ADR-RES ovarian
[21] = test system: NCI-H23 lung
[22] = test system: OVCAR-3 ovarian
[23] = test system: UACC-257 melanoma
[24] = test system: MOLT-4 leukemia
[25] = test system: SK-MEL-5 melanoma
[26] = test system: RXF 393 renal
[27] = test system: TK-10 renal
[28] = test system: A549 NSCLC
[29] = test system: MDA-MB-231 breast
[30] = test system: SF-268 CNS
[31] = test system: SW-620 colon
[32] = test system: K-562 leukemia
[33] = test system: HCT-116 colon
[34] = test system: HS 578T breast
[35] = test system: SF-539 CNS
[36] = test system: MDA-N
[37] = test system: UACC-62 melanoma
[38] = test system: KM12 colon
[39] = test system: SK-MEL-28 melanoma
[40] = test system: SN12C renal
[41] = test system: HOP-62 NSCLC
[42] = test system: OVCAR-5 ovarian
[43] = test system: NCI-H460 lung
[44] = test system: NCI-H522 lung
[45] = test system: HCT-15 colon
[46] = test system: HOP-92 NSCLC
[47] = test system: T-47D breast
[48] = test system: NCI-H226 lung
[49] = test system: OVCAR-4 ovarian
[50] = test system: MDA-MB-435
[51] = test system: LOX IMVI melanoma
[52] = test system: HT29 colon
[53] = test system: CCRF-CEM leukemia
[54] = test system: SNB-75 CNS
[55] = test system: M14 melanoma
[56] = test system: UO-31 renal
[57] = test system: HL-60(TB) leukemia
[58] = test system: MALME-3M melanoma
[59] = test system: SR leukemia

`Cc1cccc(C)c1NC(=S)NC=C(C(N)=O)C(N)=O` showed a TGI [1] greater than 100 µM, a TGI [2] greater than 100 µM and a TGI [3] greater than 100 µM. For the same molecule, the TGI [4] was greater than 100 µM, the TGI [5] was greater than 100 µM and the TGI [6] was greater than 100 µM. It also gave a TGI [7] greater than 100 µM, a TGI [8] greater than 100 µM and a TGI [9] greater than 100 µM. It also gave a TGI [10] greater than 100 µM, a TGI [11] greater than 100 µM and a TGI [12] greater than 100 µM. The TGI [13] was greater than 100 µM, the TGI [14] was greater than 100 µM and the TGI [15] was greater than 100 µM. It also gave a TGI [16] greater than 100 µM, a TGI [17] greater than 100 µM and a TGI [18] greater than 100 µM. It also gave a TGI [19] greater than 100 µM, a TGI [20] greater than 100 µM and a TGI [21] greater than 100 µM. It also gave a TGI [22] greater than 100 µM, a TGI [23] greater than 100 µM and a TGI [24] greater than 100 µM. It also gave a TGI [25] greater than 100 µM, a TGI [26] greater than 100 µM and a TGI [27] greater than 100 µM. For the same molecule, the TGI [28] was greater than 100 µM, the TGI [29] was greater than 100 µM and the TGI [30] was greater than 100 µM. The TGI [31] was greater than 100 µM, the TGI [32] was greater than 100 µM and the TGI [33] was greater than 100 µM. The TGI [34] was greater than 100 µM, the TGI [35] was greater than 100 µM and the TGI [36] was greater than 100 µM. The TGI [37] was greater than 100 µM, the TGI [38] was greater than 100 µM and the TGI [39] was greater than 100 µM. For the same molecule, the TGI [40] was greater than 100 µM, the TGI [41] was greater than 100 µM and the TGI [42] was greater than 100 µM. It also gave a TGI [43] greater than 100 µM, a TGI [44] greater than 100 µM and a TGI [45] greater than 100 µM. For the same molecule, the TGI [46] was greater than 100 µM, the TGI [47] was greater than 100 µM and the TGI [48] was greater than 100 µM. For the same molecule, the TGI [49] was greater than 100 µM, the TGI [50] was greater than 100 µM and the TGI [51] was greater than 100 µM. For the same molecule, the TGI [52] was greater than 100 µM, the TGI [53] was greater than 100 µM and the TGI [54] was greater than 100 µM. The TGI [55] was greater than 100 µM and the TGI [56] was greater than 100 µM.
`COc1ccc2c(c1)N=C1CSC(c3cccc(Br)c3)N1C2` (centres undefined) gave a TGI [1] of 36.3 µM, a TGI [3] of 31 µM and a TGI [5] of 80.7 µM. The TGI [6] was 19.7 µM, the TGI [7] was 33.8 µM and the TGI [8] was 29.7 µM. It also gave a TGI [9] of 44.3 µM, a TGI [10] of 38.4 µM and a TGI [11] of 78.8 µM. It also gave a TGI [12] of 25.2 µM, a TGI [57] of 29.6 µM and a TGI [13] of 35.1 µM. For the same molecule, the TGI [14] was 48 µM, the TGI [15] was 32.4 µM and the TGI [16] was 59.3 µM. It also gave a TGI [17] greater than 100 µM, a TGI [18] of 68.7 µM and a TGI [19] of 40.8 µM. The TGI [20] was 58 µM, the TGI [21] was 45.3 µM and the TGI [23] was 24.3 µM. The TGI [24] was 31 µM, the TGI [58] was 43.1 µM and the TGI [25] was 27.6 µM. It also gave a TGI [26] of 29.7 µM, a TGI [27] of 41 µM and a TGI [28] of 48.1 µM. The TGI [29] was 50.6 µM, the TGI [30] was greater than 100 µM and the TGI [31] was greater than 100 µM. For the same molecule, the TGI [32] was 67.1 µM, the TGI [59] was 23.1 µM and the TGI [33] was 28.6 µM. For the same molecule, the TGI [34] was 96.7 µM, the TGI [35] was 41.4 µM and the TGI [36] was 34.5 µM. For the same molecule, the TGI [37] was 31.8 µM, the TGI [38] was 36 µM and the TGI [39] was greater than 100 µM. The TGI [40] was 39.7 µM, the TGI [41] was 56.2 µM and the TGI [42] was 56.8 µM. For the same molecule, the TGI [43] was 23.7 µM, the TGI [44] was 39.1 µM and the TGI [45] was 35.5 µM. For the same molecule, the TGI [46] was 53.2 µM, the TGI [47] was greater than 100 µM and the TGI [48] was 43.5 µM. It also gave a TGI [49] of 40.4 µM, a TGI [50] of 34.5 µM and a TGI [51] of 50 µM. The TGI [52] was 31.9 µM, the TGI [54] was 38.5 µM and the TGI [55] was 36.2 µM. For the same molecule, the TGI [56] was 30.7 µM.
`Cn1nc(-c2ccccc2)nc1[N+](=O)[O-]` showed a TGI [1] greater than 10 µM, a TGI [2] greater than 10 µM and a TGI [3] greater than 10 µM. The TGI [4] was greater than 10 µM, the TGI [5] was greater than 10 µM and the TGI [6] was greater than 10 µM. The TGI [7] was greater than 10 µM, the TGI [8] was greater than 10 µM and the TGI [9] was greater than 10 µM. The TGI [10] was greater than 10 µM, the TGI [11] was greater than 10 µM and the TGI [57] was greater than 10 µM. For the same molecule, the TGI [13] was greater than 10 µM, the TGI [14] was greater than 10 µM and the TGI [15] was greater than 10 µM. The TGI [16] was greater than 10 µM, the TGI [17] was greater than 10 µM and the TGI [18] was greater than 10 µM. It also gave a TGI [19] greater than 10 µM, a TGI [20] greater than 10 µM and a TGI [21] greater than 10 µM. For the same molecule, the TGI [22] was greater than 10 µM, the TGI [23] was greater than 10 µM and the TGI [24] was greater than 10 µM. The TGI [58] was greater than 10 µM, the TGI [25] was greater than 10 µM and the TGI [26] was greater than 10 µM. The TGI [27] was greater than 10 µM, the TGI [28] was greater than 10 µM and the TGI [29] was greater than 10 µM. For the same molecule, the TGI [30] was greater than 10 µM, the TGI [31] was greater than 10 µM and the TGI [32] was greater than 10 µM. For the same molecule, the TGI [59] was greater than 10 µM, the TGI [33] was greater than 10 µM and the TGI [34] was greater than 10 µM. For the same molecule, the TGI [35] was greater than 10 µM, the TGI [36] was greater than 10 µM and the TGI [37] was greater than 10 µM. The TGI [38] was greater than 10 µM, the TGI [39] was greater than 10 µM and the TGI [40] was greater than 10 µM. It also gave a TGI [41] greater than 10 µM, a TGI [42] greater than 10 µM and a TGI [43] greater than 10 µM. For the same molecule, the TGI [44] was greater than 10 µM, the TGI [45] was greater than 10 µM and the TGI [46] was greater than 10 µM. For the same molecule, the TGI [47] was greater than 10 µM, the TGI [48] was greater than 10 µM and the TGI [49] was greater than 10 µM. For the same molecule, the TGI [50] was greater than 10 µM, the TGI [51] was greater than 10 µM and the TGI [52] was greater than 10 µM. For the same molecule, the TGI [53] was greater than 10 µM, the TGI [54] was greater than 10 µM and the TGI [55] was greater than 10 µM. For the same molecule, the TGI [56] was greater than 10 µM.
`O=c1oc2ccccc2c(O)c1C(c1ccc(/C=C/c2ccccc2)cc1)c1c(O)c2ccccc2oc1=O` gave a TGI [1] greater than 100 µM, a TGI [2] greater than 100 µM and a TGI [3] of 35.6 µM. The TGI [4] was greater than 100 µM, the TGI [5] was greater than 100 µM and the TGI [6] was 45.2 µM. It also gave a TGI [7] greater than 100 µM, a TGI [8] greater than 100 µM and a TGI [9] of 43.9 µM. It also gave a TGI [10] greater than 100 µM, a TGI [11] greater than 100 µM and a TGI [57] greater than 100 µM. The TGI [13] was 63.8 µM, the TGI [15] was 56.2 µM and the TGI [16] was 61.3 µM. The TGI [17] was 43.8 µM, the TGI [18] was 71.8 µM and the TGI [20] was 60.3 µM. The TGI [21] was greater than 100 µM, the TGI [22] was greater than 100 µM and the TGI [23] was greater than 100 µM. The TGI [24] was 66.8 µM, the TGI [58] was 65.7 µM and the TGI [25] was 74.4 µM. For the same molecule, the TGI [27] was greater than 100 µM, the TGI [29] was 67.9 µM and the TGI [30] was 64.9 µM. The TGI [31] was greater than 100 µM, the TGI [32] was greater than 100 µM and the TGI [33] was greater than 100 µM. It also gave a TGI [34] of 75.4 µM, a TGI [36] of 43.9 µM and a TGI [37] greater than 100 µM. The TGI [38] was 64.4 µM, the TGI [39] was 86.9 µM and the TGI [40] was 53.9 µM. The TGI [41] was 89.3 µM, the TGI [43] was 55.9 µM and the TGI [44] was 49.1 µM. The TGI [45] was greater than 100 µM, the TGI [46] was 53.5 µM and the TGI [47] was greater than 100 µM. It also gave a TGI [48] of 74.4 µM, a TGI [49] greater than 100 µM and a TGI [50] of 80 µM. The TGI [51] was 73.3 µM, the TGI [52] was 37.2 µM and the TGI [53] was greater than 100 µM. The TGI [54] was 66.5 µM and the TGI [56] was 41.1 µM.
